Measurements published in paper PMC10468942, “A Fluorescent Probe as a Lead Compound for a Selective α-Synuclein PET Tracer: Development of a Library of 2-Styrylbenzothiazoles and Biological Evaluation of [^18F]PFSB and [^18F]MFSB” (ACS Omega, 2023).
Where “and” joins values, the source holds several entries; their conditions need not be identical. Equal values may be shown once. Read-outs that look alike come from different tables or passages of the source.

Columns and labels:
[1] = target: T1, αSYN fibrils (Homo sapiens, UniProt P37840); experiment: [^3H]PiB competition binding assay on αSYN fibrils
T1 construct: cloning of the DNA construct encoding full-length αSYN into the pET-22b vector; made in house; host or cells: Escherichia coli BL21
Procedure: Following the cloning of the DNA construct encoding full-length αSYN into the pET-22b vector and its transformation into BL21 cells, the expression of human αSYN from a prokaryotic host was induced overnight in Escherichia coli at 20 °C with 0.5 mM IPTG. The cells were harvested by centrifugation, resuspended in 20 mM Tris-HCl pH 7.6, 25 mM NaCl and 1× complete protease inhibitor (Roche, Basel, Switzerland), and lysed by sonication. […] Anion exchange chromatography (HiTrap Q, GE Healthcare, Chicago, Illinois) was used to trap the produced αSYN, which was eluted with NaCl 0.1 M over 20 column volumes. Fractions containing αSYN were concentrated and further purified through a Superdex 75 SEC column equilibrated with PBS. […] A 4 mg/mL solution of αSYN in 20 mM K3PO4 pH 9.1 was placed in an orbital shaker at 37 °C, 1000 rpm for 5 days to prepare P91s. The assemblies were either sonicated with cycles of 20 s on and 10 s off at 50% amplitude (Q800R3, Qsonica) for a total of 10 min or directly aliquoted in volumes of 10 μL each stored at −80 °C until use. […] The final products were aliquoted, frozen on dry ice, and stored at −80 °C until use.
(§1) Concentrations of αSYN and Aβ1-42 fibrils were as described above.
(§2) Plates were incubated on a shaker (MaxQ 6000, Thermo Fisher Scientific, Inc., Marietta, OH) at 50 rpm for 2 h at 37 °C, covered by removable sealing tapes (PerkinElmer, Waltham, MA). Vacuum filtration and read-out were performed as previously reported.[17] […] Data points were fitted using nonlinear regression analysis in GraphPad Prism (GraphPad Software, Inc., Version 8.4.0, La Jolla).

[2] = target: T2, Aβ1-42 fibrils (Homo sapiens, UniProt P05067); experiment: [^3H]PiB competition binding assay on Aβ fibrils; conditions: Aβ1–42 fibrils
T2 construct: Synthetic lyophilized human Aβ1-42 peptide; purchased EMC Microcollections, Tuebingen, Germany; host or cells: synthetic peptide
Procedure: Following the cloning of the DNA construct encoding full-length αSYN into the pET-22b vector and its transformation into BL21 cells, the expression of human αSYN from a prokaryotic host was induced overnight in Escherichia coli at 20 °C with 0.5 mM IPTG. The cells were harvested by centrifugation, resuspended in 20 mM Tris-HCl pH 7.6, 25 mM NaCl and 1× complete protease inhibitor (Roche, Basel, Switzerland), and lysed by sonication. […] Anion exchange chromatography (HiTrap Q, GE Healthcare, Chicago, Illinois) was used to trap the produced αSYN, which was eluted with NaCl 0.1 M over 20 column volumes. Fractions containing αSYN were concentrated and further purified through a Superdex 75 SEC column equilibrated with PBS. […] A 4 mg/mL solution of αSYN in 20 mM K3PO4 pH 9.1 was placed in an orbital shaker at 37 °C, 1000 rpm for 5 days to prepare P91s. The assemblies were either sonicated with cycles of 20 s on and 10 s off at 50% amplitude (Q800R3, Qsonica) for a total of 10 min or directly aliquoted in volumes of 10 μL each stored at −80 °C until use. The method for Aβ1-42 fibrils generation was adapted from Bagchi et al. and described in Kuebler et al.[17],[27] […] Aggregation was induced by incubation in an Eppendorf Thermomixer at 37 °C with shaking at 800 rpm for 72 h. The resulting fibrils were sonicated for 3 min in a water bath (Elmasonic S 60 H, Elma Schmidbauer GmbH, Singen, Germany). The final products were aliquoted, frozen on dry ice, and stored at −80 °C until use.
as §1, §2

[3] = Ki, αSYN [^3H]PiB competition, mean Ki ± SEM, n = 3, or single determinations
[4] = nonmethylated compounds, Table 1, two values in a cell = single determinations, a: mean Ki ± SEM of three data points, b: single data point, read-out: Ki
[5] = methylated compounds, Table 2, two values in a cell = single determinations, read-out: Ki

T2 sequence (P05067 672-713 limits assumed): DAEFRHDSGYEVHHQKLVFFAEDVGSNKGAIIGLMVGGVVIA

| Ki [1, 4] | Ki [1, 5] | Structure (SMILES) | other results |
| --- | --- | --- | --- |
|  | > 400 nM | C[n+]1c(/C=C/c2ccc(N3CCOCC3)cc2)sc2ccccc21 [15b, 3-Methyl-2-(4-morpholinostyryl)benzo[d]thiazol-3-ium Iodide] |  |
| > 400 nM |  | CN(C)c1ccc(C=Cc2nc3ccccc3s2)cc1 [19a, 4-(2-(Benzo[d]thiazol-2-yl)vinyl)-N,N-dimethylaniline] |  |
|  | 23 nM and 16.8 nM | C[n+]1c(C=CC=Cc2ccc(N3CCCCC3)cc2)sc2ccccc21 [14b, 3-Methyl-2-(4-(4-(piperidin-1-yl)phenyl)buta-1,3-dien-1-yl)benzo[d]thiazol-3-ium Iodide] | Ki [1, 3]: < 20 nM |
|  | > 400 nM | C[n+]1c(C=Cc2ccc(N3CCCCC3)cc2)sc2c(F)cccc21 [12b, 7-Fluoro-3-methyl-2-(4-(piperidin-1-yl)styryl)benzo[d]thiazol-3-ium Iodide] |  |
|  | > 400 nM | C[n+]1c(C=Cc2ccc(N3CCC(F)CC3)cc2)sc2ccccc21 [18b, 2-(4-(4-Fluoropiperidin-1-yl)styryl)-3-methylbenzo[d]thiazol-3-ium Iodide] |  |
| 73.4 ± 19 nM |  | C(=Cc1nc2ccccc2s1)c1ccc(N2CCCC2)cc1 [17a, 2-(4-(Pyrrolidin-1-yl)styryl)benzo[d]thiazole] | competition with [^3H]PiB / binding to Aβ fibrils (in words) [2]: None of the tested compounds appreciably competed against [^3H]PiB |
| 92 ± 30.3 nM |  | C(=Cc1nc2ccccc2s1)c1ccc(N2CCOCC2)cc1 [15a, 4-(4-(2-(Benzo[d]thiazol-2-yl)vinyl)phenyl)morpholine] | competition with [^3H]PiB / binding to Aβ fibrils (in words) [2]: None of the tested compounds appreciably competed against [^3H]PiB |
|  | > 400 nM | C[n+]1c(C=Cc2ccc(N3CCSCC3)cc2)sc2ccccc21 [16b, 3-Methyl-2-(4-thiomorpholinostyryl)benzo[d]thiazol-3-ium Iodide] |  |
| 219 nM and 58.6 nM |  | C(=Cc1nc2ccccc2s1)c1ccc(N2CCSCC2)cc1 [16a, 2-(4-Thiomorpholinostyryl)benzo[d]thiazole] |  |
|  | 145 nM and 58.6 nM | C[n+]1c(C=Cc2ccc(N3CCCC3)cc2)sc2ccccc21 [17b, 3-Methyl-2-(4-(pyrrolidin-1-yl)styryl)benzo[d]thiazol-3-ium Iodide] |  |
|  | > 400 nM | CN(C)c1ccc(/C=C/c2sc3ccccc3[n+]2C)cc1 [19b, 2-(4-(Dimethylamino)styryl)-3-methylbenzo[d]thiazol-3-ium Iodide] |  |
| 170 nM and 33.5 nM |  | C(=Cc1nc2ccccc2s1)c1ccc(N2CCCCC2)cc1 [compound 20, 2-(4-(Piperidin-1-yl)styryl)benzo[d]thiazole] |  |
|  | > 400 nM | C[n+]1c(-c2ccc(N3CCCCC3)cc2)sc2ccccc21 [13b, 3-Methyl-2-(4-(piperidin-1-yl)phenyl)benzo[d]thiazol-3-ium] |  |
| 99.8 ± 32.6 nM |  | FC1CCN(c2ccc(C=Cc3nc4ccccc4s3)cc2)CC1 [18a, 2-(4-(4-Fluoropiperidin-1-yl)styryl)benzo[d]thiazole] |  |

Further lines, the compound ahead of its results:

| Structure (SMILES) | Ki [1, 4] | Ki [1, 5] | other results |
| --- | --- | --- | --- |
| Fc1ccc2nc(C=CC=Cc3ccc(N4CCCC4)cc3)sc2c1 [compound 44, 6-Fluoro-2-(4-(4-(pyrrolidin-1-yl)phenyl)buta-1,3-dien-1-yl)benzo[d]thiazole] |  |  | Ki [1, 3]: 85 ± 41 nM; competition with [^3H]PiB / binding to Aβ fibrils (in words) [2]: remained low |
| Fc1cccc2nc(C=Cc3ccc(N4CCCCC4)cc3)sc12 [12a, 7-Fluoro-2-(4-(piperidin-1-yl)styryl)benzo[d]thiazole] | 283 nM |  |  |
| Cc1ccc2nc(C=Cc3ccc(N4CCCCC4)cc3)sc2c1 [7a, 6-Methyl-2-(4-(piperidin-1-yl)styryl)benzo[d]thiazole] | 230 nM and 218 nM |  |  |
| Cc1ccc2sc(C=Cc3ccc(N4CCCCC4)cc3)[n+](C)c2c1 [4b, 3,5-Dimethyl-2-(4-(piperidin-1-yl)styryl)benzo[d]thiazol-3-ium Iodide] |  | 84.6 nM and 59.9 nM |  |
| Cc1cccc2nc(C=Cc3ccc(N4CCCCC4)cc3)sc12 [10a, 7-Methyl-2-(4-(piperidin-1-yl)styryl)benzo[d]thiazole] | > 400 nM |  |  |
| C[n+]1c(C=Cc2ccc(N3CCCCC3)cc2)sc2ccc(F)cc21 [6b, 5-Fluoro-3-methyl-2-(4-(piperidin-1-yl)styryl)benzo[d]thiazol-3-ium Iodide] |  | 435 nM and 268 nM |  |
| Fc1ccc2sc(C=Cc3ccc(N4CCCCC4)cc3)nc2c1 [6a, 5-Fluoro-2-(4-(piperidin-1-yl)styryl)benzo[d]thiazole] | 169 nM and 124 nM |  |  |
| COc1ccc2nc(C=Cc3ccc(N4CCCCC4)cc3)sc2c1 [8a, 6-Methoxy-2-(4-(piperidin-1-yl)styryl)benzo[d]thiazole] | 110 nM and 103 nM |  |  |
| COc1ccc2sc(C=Cc3ccc(N4CCCCC4)cc3)[n+](C)c2c1 [5b, 5-Methoxy-3-methyl-2-(4-(piperidin-1-yl)styryl)benzo[d]thiazol-3-ium Iodide] |  | 27.5 nM and 163 nM |  |
| COc1cccc2sc(C=Cc3ccc(N4CCCCC4)cc3)nc12 [2a, 4-Methoxy-2-(4-(piperidin-1-yl)styryl)benzo[d]thiazole] | > 400 nM |  |  |
| Cc1cccc2c1sc(C=Cc1ccc(N3CCCCC3)cc1)[n+]2C [10b, 3,7-Dimethyl-2-(4-(piperidin-1-yl)styryl)benzo[d]thiazol-3-ium Iodide] |  | 231 nM and 63.9 nM |  |
| COc1ccc2sc(C=Cc3ccc(N4CCCCC4)cc3)nc2c1 [5a, 5-Methoxy-2-(4-(piperidin-1-yl)styryl)benzo[d]thiazole] | 128 nM and 188 nM |  |  |
| Fc1cccc2sc(C=Cc3ccc(N4CCCCC4)cc3)nc12 [3a, 4-Fluoro-2-(4-(piperidin-1-yl)styryl)benzo[d]thiazole] | 187 nM and 110 nM |  |  |
| C[n+]1c(/C=C/c2ccc(N3CCCCC3)cc2)sc2cccc(F)c21 [3b, 4-Fluoro-3-methyl-2-(4-(piperidin-1-yl)styryl)benzo[d]thiazol-3-ium 4-nitrobenzenesulfonate] |  | > 400 nM |  |
| COc1cccc2nc(C=Cc3ccc(N4CCCCC4)cc3)sc12 [11a, 7-Methoxy-2-(4-(piperidin-1-yl)styryl)benzo[d]thiazole] | > 400 nM |  |  |
| Cc1cccc2sc(C=Cc3ccc(N4CCCCC4)cc3)nc12 [1a, 4-Methyl-2-(4-(piperidin-1-yl)styryl)benzo[d]thiazole] | 71.2 nM and 198 nM |  |  |
| COc1ccc2c(c1)sc(C=Cc1ccc(N3CCCCC3)cc1)[n+]2C [8b, 6-Methoxy-3-methyl-2-(4-(piperidin-1-yl)styryl)benzo[d]thiazol-3-ium Iodide] |  | 19.7 nM and 9.6 nM |  |
| COc1cccc2c1sc(C=Cc1ccc(N3CCCCC3)cc1)[n+]2C [11b, 7-Methoxy-3-methyl-2-(4-(piperidin-1-yl)styryl)benzo[d]thiazol-3-ium Iodide] |  | 234 nM and 177 nM |  |
| COc1cccc2sc(C=Cc3ccc(N4CCCCC4)cc3)[n+](C)c12 [2b, 4-Methoxy-3-methyl-2-(4-(piperidin-1-yl)styryl)benzo[d]thiazol-3-ium Iodide] |  | 70.8 nM and 34.3 nM |  |
| Cc1ccc2c(c1)sc(C=Cc1ccc(N3CCCCC3)cc1)[n+]2C [7b, 3,6-Dimethyl-2-(4-(piperidin-1-yl)styryl)benzo[d]thiazol-3-ium Iodide] |  | 16.8 nM and 23.8 nM |  |
| C[n+]1c(C=Cc2ccc(N3CCCCC3)cc2)sc2cc(F)ccc21 [9b, 6-Fluoro-3-methyl-2-(4-(piperidin-1-yl)styryl)benzo[d]thiazol-3-ium Iodide] |  | 335 nM and 43.6 nM |  |
| Cc1cccc2sc(/C=C/c3ccc(N4CCCCC4)cc3)[n+](C)c12 [1b, 3,4-Dimethyl-2-(4-(piperidin-1-yl)styryl)benzo[d]thiazol-3-ium 4-nitrobenzenesulfonate] |  | 36.1 nM and 83.9 nM |  |
| Cc1ccc2sc(C=Cc3ccc(N4CCCCC4)cc3)nc2c1 [4a, 5-Methyl-2-(4-(piperidin-1-yl)styryl)benzo[d]thiazole] | 233 nM and 88.1 nM |  |  |
